Source: PMC7235250, “Estimation of dietary ^14C dose coefficient using ^13C-labelled compound administration analysis” (Scientific Reports, 2020)

What was measured:
[1] = Second experiment: ^13C-labelled compounds once daily for 4 successive days, ^13C/^12C ratio in breath and hair, metabolic model; conditions: oral once daily for 4 days; for Rr, recovery ratio of administered ^13C / dB, distribution ratio of ^13C into breath pathway to administered ^13C / dBf, distribution ratio into fast compartment of breath pathway / dO, distribution ratio of ^13C into other* pathway (hair) to administered ^13C / dOf, distribution ratio into fast compartment of other* pathway / kBf, excretion rate constant, fast compartment, breath pathway / kBs, excretion rate constant, slow compartment, breath pathway / kOf, excretion rate constant, fast compartment, other* pathway / kOs, excretion rate constant, slow compartment, other* pathway: mean
Source text: The rate of ^13C excretion for each pathway (Em, g d^−1) is given by the following equations:1 Em=∑nkmndmdmnkm/km−kmn(e^−kmnt−e^−kmt) where, m is the excretion pathway symbol of B, U, F, and O corresponding to the excretion pathways of breath, urine, faeces, and other*, respectively; n is the symbol of f and s corresponding to the compartments with fast and slow metabolism, respectively; km and kmn are the excretion rate constants from compartment Cm and Cmn, respectively; dm is the distribution ratio of ^13C into compartment Cm to the administered ^13C; dmn is the distribution ratio of ^13C into compartment Cmn to ^13C from compartment Cm; Rr is the recovery ratio of administered ^13C. The sum of distribution ratios of compartments with fast and slow metabolism was fixed to unity (i.e. dBf + dBs = 1).
Additional doses of ^13C-labelled compounds were administered on day 160 for marking the ^13C/^12C ratio of hair samples and the volunteers freely ate meals without calorific restrictions.
In the first experiment, breath, urine, faeces, and hair samples were periodically collected and the ^13C/^12C ratio was analysed following the procedure described in a previous paper. […] Faecal samples were collected once before day 0 and at every defecation from day 0 to 14. On day 0, additional breath and urine samples were collected frequently after administration. […] According to the section number of the two peaks, the experimental date for each section between the two peaks was determined under an assumption of uniform hair growth.
Some volunteers also dropped out of the sampling procedure for various reasons.
The detailed procedures used were described in a previous published paper. When urine and hair samples had no increase phase, the values of kU and kO were fixed to those of kB obtained from the same volunteers in the regression analysis.

[2] = 50-year cumulative body burden and committed effective dose / dose coefficient calculated with the metabolic models; parameters: species or system human; conditions: orally ingested 1 g of ^13C
Source text: The dose coefficients obtained with each assumption are called non conservative estimation (ER) and conservative estimation (EC) hereafter. The recovered fraction was assumed to be distributed uniformly in the whole-body carbon with a tissue weighting factor of unity. […] In addition to these estimations, we calculated the most conservative estimation (EX) adopting the tissue weighting factor of unity for unrecovered carbon. We solely adopted the value for the maximal estimation.
The 50-year cumulative body burden of ^14C after a single ingestion of 1 Bq of ^14C in each compound (BC Bq d) was calculated using the metabolic model and its parameters described above, under the assumption of the same metabolic behaviour of ^13C and ^14C. […] The total cumulative burden was derived as a sum of burdens from the recoverable and unrecoverable fractions with designated proportions Rr and 1−Rr, respectively. For the recoverable fraction, the burden was calculated using following equation:2 BC≈∑mdm/km+∑m∑ndmdmn/kmn where, every dm was divided by Rr when Rr was larger than unity.
The 50-year committed effective dose (Sv) from ingestion of 1 Bq ^14C was calculated from the 50-year cumulative burden by using the ratio of absorbed dose to ^14C radioactivity, radiation weighting factor of beta-ray from ^14C (1.0) and tissue weighting factors. […]

[3] = parameters: method as in PMID 14371643; conditions: intravenous administration; cited from earlier work
[4] = parameters: method as in doi:10.1093/oxfordjournals.rpd.a032384; conditions: rats, 100 days after administration; cited from earlier work

SMILES: NCC(=O)O [Glycine, glycine]
- Rr, recovery ratio of administered ^13C ([1]; All (both sexes)): 1.0
- dB, distribution ratio of ^13C into breath pathway to administered ^13C ([1]; All (both sexes)): 0.80
- dBf, distribution ratio into fast compartment of breath pathway ([1]; All (both sexes)): 0.36
- dO, distribution ratio of ^13C into other* pathway (hair) to administered ^13C ([1]; All (both sexes)): 0.18
- dOf, distribution ratio into fast compartment of other* pathway ([1]; All (both sexes)): 0.50
- kBf, excretion rate constant, fast compartment, breath pathway ([1]; All (both sexes)): 11 day⁻¹
- kBs, excretion rate constant, slow compartment, breath pathway ([1]; All (both sexes)): 0.17 day⁻¹
- kOf, excretion rate constant, fast compartment, other* pathway ([1]; All (both sexes)): 0.10 day⁻¹
- kOs, excretion rate constant, slow compartment, other* pathway ([1]; All (both sexes)): 0.0086 day⁻¹
- Rr, recovery ratio of administered ^13C ([1]; Female): 1.0
- dB, distribution ratio of ^13C into breath pathway to administered ^13C ([1]; Female): 0.84
- dBf, distribution ratio into fast compartment of breath pathway ([1]; Female): 0.36
- dO, distribution ratio of ^13C into other* pathway (hair) to administered ^13C ([1]; Female): 0.18
- dOf, distribution ratio into fast compartment of other* pathway ([1]; Female): 0.52
- kBf, excretion rate constant, fast compartment, breath pathway ([1]; Female): 11 day⁻¹
- kBs, excretion rate constant, slow compartment, breath pathway ([1]; Female): 0.18 day⁻¹
- kOf, excretion rate constant, fast compartment, other* pathway ([1]; Female): 0.098 day⁻¹
- kOs, excretion rate constant, slow compartment, other* pathway ([1]; Female): 0.0091 day⁻¹
- Rr, recovery ratio of administered ^13C ([1]; Male): 0.93
- dB, distribution ratio of ^13C into breath pathway to administered ^13C ([1]; Male): 0.74
- dBf, distribution ratio into fast compartment of breath pathway ([1]; Male): 0.37
- dO, distribution ratio of ^13C into other* pathway (hair) to administered ^13C ([1]; Male): 0.18
- dOf, distribution ratio into fast compartment of other* pathway ([1]; Male): 0.47
- kBf, excretion rate constant, fast compartment, breath pathway ([1]; Male): 9.7 day⁻¹
- kBs, excretion rate constant, slow compartment, breath pathway ([1]; Male): 0.16 day⁻¹
- kOf, excretion rate constant, fast compartment, other* pathway ([1]; Male): 0.11 day⁻¹
- kOs, excretion rate constant, slow compartment, other* pathway ([1]; Male): 0.0080 day⁻¹
- estimated distribution ratio of ^13C for the breath pathway (dB) ([1]; mean ± S.D., both sexes): 80 ± 9%

SMILES: CCCCCCCCCCCCCCCC(=O)O [palmitic acid]
- contribution of faeces pathway to 50-year cumulative body burden [2]: 0.034 ± 0.070%
- contribution of urine pathway to 50-year cumulative body burden [2]: 0.038 ± 0.030%

SMILES: N[14CH2]C(=O)O [glycine-[2-^14C]]
- recovery through the breath pathway [3]: 86%

SMILES: CCCCCCCC/C=C\CCCCCCCC(=O)O [^14C-labelled oleic acid, oleic acid]
- ^14C concentration in adipose tissue relative to that of palmitic acid [4]: three times higher
